Here are results for six molecules from BindingDB's records for doi:10.1016/S0960-894X(00)80680-0 (1993).

Each structure is given as a SMILES string.

The experiment in a line: Displacement of [125I]Bolton-Hunter-CCK-8 from guinea pig cortex Cholecystokinin type B receptor. A general note: In a radioligand displacement assay an active substance lowers the binding of a labelled ligand.
In turn, `CN(C(=O)[C@H](CC(=O)O)NNC[C@H](CCCCNC(=O)C=Cc1ccc(O)cc1)NC(=O)[C@H](Cc1c[nH]c2ccccc12)NC(=O)OC(C)(C)C)[C@@H](Cc1ccccc1)C(N)=O` [3-(N'-{(S)-2-[(S)-2-tert-Butoxycarbonylamino-3-(1H-indol-3-yl)-propionylamino]-6-[(Z)-3-(4-hydroxy-phenyl)-acryloylamino]-hexyl}-hydrazino)-N-((S)-1-carbamoyl-2-phenyl-ethyl)-N-methyl-succinamic acid] showed a half-maximal inhibitory concentration (IC50) of 5 µM.
Then `CC(C)(C)OC(=O)N[C@@H](Cc1c[nH]c2ccccc12)C(=O)N[C@@H](CCCCNC(=O)C=Cc1ccc(O)cc1)CNN[C@@H](CC(=O)O)C(=O)N[C@@H](Cc1ccccc1)C(N)=O` [3-(N'-{(S)-2-[(S)-2-tert-Butoxycarbonylamino-3-(1H-indol-3-yl)-propionylamino]-6-[(Z)-3-(4-hydroxy-phenyl)-acryloylamino]-hexyl}-hydrazino)-N-((S)-1-carbamoyl-2-phenyl-ethyl)-succinamic acid], with 3.8 µM.
The value for `Cc1ccccc1NC(=O)NCCCC[C@H](NC(=O)[C@H](Cc1c[nH]c2ccccc12)NC(=O)OC(C)(C)C)C(=O)N[C@H](CNN[C@@H](Cc1ccccc1)C(N)=O)CC(=O)O` [3-{2-[2-tert-Butoxycarbonylamino-3-(1H-indol-3-yl)-propionylamino]-6-[(S)-3-((1S,2S)-o-tolyl)-ureido]-hexanoylamino}-4-[N'-((S)-1-carbamoyl-2-phenyl-ethyl)-hydrazino]-butyric acid] was > 10 µM; that for `Cc1ccccc1NC(=O)NCCCC[C@H](NNC[C@H](Cc1c[nH]c2ccccc12)NC(=O)OC(C)(C)C)C(=O)N[C@@H](CC(=O)O)C(=O)N[C@@H](Cc1ccccc1)C(N)=O` [(S)-3-[(S)-2-[N'-((S)-2-tert-Butoxycarbonylamino-3-1H-indol-3-yl-propyl)-hydrazino]-6-(3-o-tolyl-ureido)-hexanoylamino]-N-((S)-1-carbamoyl-2-phenyl-ethyl)-succinamic acid] was 2.5 µM.
Then `CC(C)(C)OC(=O)N[C@@H](Cc1c[nH]c2ccccc12)C(=O)N[C@@H](CCCCNC(=O)C=Cc1ccc(O)cc1)C(=O)N[C@H](CNN[C@@H](Cc1ccccc1)C(N)=O)CC(=O)O` [(S)-3-{2-[2-tert-Butoxycarbonylamino-3-(1H-indol-3-yl)-propionylamino]-6-[(S)-3-((S)-4-hydroxy-phenyl)-acryloylamino]-hexanoylamino}-4-[N'-((S)-1-carbamoyl-2-phenyl-ethyl)-hydrazino]-butyric acid], with 7 µM; and `Cc1ccccc1NC(=O)NCCCC[C@@H](CNN[C@@H](CC(=O)O)C(=O)N(C)[C@@H](Cc1ccccc1)C(N)=O)NC(=O)[C@H](Cc1c[nH]c2ccccc12)NC(=O)OC(C)(C)C` [(S)-3-{N'-[2-((3aS,7S)-2-tert-Butoxycarbonylamino-3-1H-indol-3-yl-propionylamino)-6-(3-o-tolyl-ureido)-hexyl]-hydrazino}-N-((S)-1-carbamoyl-2-phenyl-ethyl)-N-methyl-succinamic acid], with > 10 µM.

A word on the IC50: it is the point on the concentration scale where inhibition reaches its midpoint. Higher therefore signals weaker potency in that assay.
